Source: the supplement of paper PMC10307832

Experiments:
Assay in all cases: relative viability (nuclei count vs DMSO), 5 days (fraction); higher = more cells survive
AGI-6780 = compound: O=C(Nc1cccc(C(F)(F)F)c1)Nc1cc(S(=O)(=O)NC2CC2)ccc1-c1ccsc1 [AGI-6780]
Procedure, shortened: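 In 1536-well plates, lung cancer cell lines rested overnight at 37 °C before five library-drug doses (not always all listed), √10 apart, were pinned onto vehicle-anchored plates. Nuclei were counted with MetaXpress from 4× Hoechst images taken after 5 days without medium change. Viability compares treated-well with vehicle-well nuclei as a median over plates, and plates needed control CV below 25% plus at least one doubling to pass.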

AGI-6780 + Tozasertib = compound: O=C(Nc1cccc(C(F)(F)F)c1)Nc1cc(S(=O)(=O)NC2CC2)ccc1-c1ccsc1 [AGI-6780] + Cc1cc(Nc2cc(N3CCN(C)CC3)nc(Sc3ccc(NC(=O)C4CC4)cc3)n2)n[nH]1 [Tozasertib] (partner 0.1 µM)
Procedure, shortened: (§1)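 Lung cancer cell lines in 1536-well plates were dosed by pin tool the day after seeding, either with one drug alone or with a fixed anchor-drug dose plus five library-drug doses (not always all listed) in √10 steps. After 5 days, cells were fixed and their nuclei stained in one step (final 0.05% Triton X-100, 1% formaldehyde, 1 ug/ml Hoechst), then counted on 4× images. Relative viability is the nuclei count in treated wells divided by that in vehicle wells. Values are medians of duplicate plates.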

AGI-6780 + Foretinib = compound: O=C(Nc1cccc(C(F)(F)F)c1)Nc1cc(S(=O)(=O)NC2CC2)ccc1-c1ccsc1 [AGI-6780] + COc1cc2c(Oc3ccc(NC(=O)C4(C(=O)Nc5ccc(F)cc5)CC4)cc3F)ccnc2cc1OCCCN1CCOCC1 [Foretinib] (partner 0.25 µM)
Procedure, shortened: as §1

AGI-6780 + Dasatinib = compound: O=C(Nc1cccc(C(F)(F)F)c1)Nc1cc(S(=O)(=O)NC2CC2)ccc1-c1ccsc1 [AGI-6780] + Cc1nc(Nc2ncc(C(=O)Nc3c(C)cccc3Cl)s2)cc(N2CCN(CCO)CC2)n1 [Dasatinib] (partner 0.075 µM)
Procedure, shortened: as §1

AGI-6780 + Luminespib = compound: O=C(Nc1cccc(C(F)(F)F)c1)Nc1cc(S(=O)(=O)NC2CC2)ccc1-c1ccsc1 [AGI-6780] + CCNC(=O)c1noc(-c2cc(C(C)C)c(O)cc2O)c1-c1ccc(CN2CCOCC2)cc1 [Luminespib] (partner 0.01 µM)
Procedure, shortened: as §1

AGI-6780 + OSI-027 = compound: O=C(Nc1cccc(C(F)(F)F)c1)Nc1cc(S(=O)(=O)NC2CC2)ccc1-c1ccsc1 [AGI-6780] + COc1cccc2cc(-c3nc([C@H]4CC[C@H](C(=O)O)CC4)n4ncnc(N)c34)[nH]c12 [OSI-027] (partner 0.5 µM)
Procedure, shortened: as §1

AGI-6780 + Phenformin = compound: O=C(Nc1cccc(C(F)(F)F)c1)Nc1cc(S(=O)(=O)NC2CC2)ccc1-c1ccsc1 [AGI-6780] + N=C(N)NC(=N)NCCc1ccccc1 [Phenformin] (partner 250 µM)
Procedure, shortened: as §1

AGI-6780 + Crizotinib = compound: O=C(Nc1cccc(C(F)(F)F)c1)Nc1cc(S(=O)(=O)NC2CC2)ccc1-c1ccsc1 [AGI-6780] + C[C@@H](Oc1cc(-c2cnn(C3CCNCC3)c2)cnc1N)c1c(Cl)ccc(F)c1Cl [Crizotinib] (partner 1 µM)
Procedure, shortened: as §1

AGI-6780 + Pictilisib = compound: O=C(Nc1cccc(C(F)(F)F)c1)Nc1cc(S(=O)(=O)NC2CC2)ccc1-c1ccsc1 [AGI-6780] + CS(=O)(=O)N1CCN(Cc2cc3nc(-c4cccc5[nH]ncc45)nc(N4CCOCC4)c3s2)CC1 [Pictilisib] (partner 1 µM)
Procedure, shortened: as §1

AGI-6780 + Alpelisib = compound: O=C(Nc1cccc(C(F)(F)F)c1)Nc1cc(S(=O)(=O)NC2CC2)ccc1-c1ccsc1 [AGI-6780] + Cc1nc(NC(=O)N2CCC[C@H]2C(N)=O)sc1-c1ccnc(C(C)(C)C(F)(F)F)c1 [Alpelisib] (partner 2 µM)
Procedure, shortened: as §1

AGI-6780 + Linsitinib = compound: O=C(Nc1cccc(C(F)(F)F)c1)Nc1cc(S(=O)(=O)NC2CC2)ccc1-c1ccsc1 [AGI-6780] + C[C@]1(O)C[C@@H](c2nc(-c3ccc4ccc(-c5ccccc5)nc4c3)c3c(N)nccn32)C1 [Linsitinib] (partner 1 µM)
Procedure, shortened: as §1

AGI-6780 + Bortezomib = compound: O=C(Nc1cccc(C(F)(F)F)c1)Nc1cc(S(=O)(=O)NC2CC2)ccc1-c1ccsc1 [AGI-6780] + CC(C)C[C@H](NC(=O)[C@H](Cc1ccccc1)NC(=O)c1cnccn1)B(O)O [Bortezomib] (partner 0.002 µM)
Procedure, shortened: as §1

AGI-6780 + Pemetrexed = compound: O=C(Nc1cccc(C(F)(F)F)c1)Nc1cc(S(=O)(=O)NC2CC2)ccc1-c1ccsc1 [AGI-6780] + Nc1nc2[nH]cc(CCc3ccc(C(=O)N[C@@H](CCC(=O)O)C(=O)O)cc3)c2c(=O)[nH]1 [Pemetrexed] (partner 0.2 µM)
Procedure, shortened: as §1

AGI-6780 + Lapatinib = compound: O=C(Nc1cccc(C(F)(F)F)c1)Nc1cc(S(=O)(=O)NC2CC2)ccc1-c1ccsc1 [AGI-6780] + CS(=O)(=O)CCNCc1ccc(-c2ccc3ncnc(Nc4ccc(OCc5cccc(F)c5)c(Cl)c4)c3c2)o1 [Lapatinib] (partner 2 µM)
Procedure, shortened: as §1

NCI-H1623
relative viability (AGI-6780; 0.08 µM): 0.967 | relative viability (AGI-6780; 0.253 µM): 0.953 | relative viability (AGI-6780; 0.8 µM): 0.977 | relative viability (AGI-6780; 2.53 µM): 0.681 | relative viability (AGI-6780; 8 µM): 0.949 | relative viability (AGI-6780 + Tozasertib; first compound 0.08 µM): 0.47 | relative viability (AGI-6780 + Tozasertib; first compound 0.253 µM): 0.519 | relative viability (AGI-6780 + Tozasertib; first compound 0.8 µM): 0.474 | relative viability (AGI-6780 + Tozasertib; first compound 2.53 µM): 0.391 | relative viability (AGI-6780 + Tozasertib; first compound 8 µM): 0.409 | relative viability (AGI-6780 + Foretinib; first compound 0.08 µM): 0.789 | relative viability (AGI-6780 + Foretinib; first compound 0.253 µM): 0.856 | relative viability (AGI-6780 + Foretinib; first compound 0.8 µM): 0.976 | relative viability (AGI-6780 + Foretinib; first compound 2.53 µM): 0.721 | relative viability (AGI-6780 + Foretinib; first compound 8 µM): 0.887 | relative viability (AGI-6780 + Dasatinib; first compound 0.08 µM): 0.484 | relative viability (AGI-6780 + Dasatinib; first compound 0.253 µM): 0.553 | relative viability (AGI-6780 + Dasatinib; first compound 0.8 µM): 0.619 | relative viability (AGI-6780 + Dasatinib; first compound 2.53 µM): 0.477 | relative viability (AGI-6780 + Dasatinib; first compound 8 µM): 0.489 | relative viability (AGI-6780 + Luminespib; first compound 0.08 µM): 0.489 | relative viability (AGI-6780 + Luminespib; first compound 0.253 µM): 0.483 | relative viability (AGI-6780 + Luminespib; first compound 0.8 µM): 0.575 | relative viability (AGI-6780 + Luminespib; first compound 2.53 µM): 0.381 | relative viability (AGI-6780 + Luminespib; first compound 8 µM): 0.463 | relative viability (AGI-6780 + OSI-027; first compound 0.08 µM): 0.537 | relative viability (AGI-6780 + OSI-027; first compound 0.253 µM): 0.453 | relative viability (AGI-6780 + OSI-027; first compound 0.8 µM): 0.454 | relative viability (AGI-6780 + OSI-027; first compound 2.53 µM): 0.374 | relative viability (AGI-6780 + OSI-027; first compound 8 µM): 0.396 | relative viability (AGI-6780 + Phenformin; first compound 0.08 µM): 0.561 | relative viability (AGI-6780 + Phenformin; first compound 0.253 µM): 0.604 | relative viability (AGI-6780 + Phenformin; first compound 0.8 µM): 0.609 | relative viability (AGI-6780 + Phenformin; first compound 2.53 µM): 0.508 | relative viability (AGI-6780 + Phenformin; first compound 8 µM): 0.518

NCI-H1563
relative viability (AGI-6780; 0.08 µM): 0.999 | relative viability (AGI-6780; 0.253 µM): 1.02 | relative viability (AGI-6780; 0.8 µM): 0.949 | relative viability (AGI-6780; 2.53 µM): 0.87 | relative viability (AGI-6780; 8 µM): 0.98 | relative viability (AGI-6780 + Foretinib; first compound 0.08 µM): 0.901 | relative viability (AGI-6780 + Foretinib; first compound 0.253 µM): 0.977 | relative viability (AGI-6780 + Foretinib; first compound 0.8 µM): 1.02 | relative viability (AGI-6780 + Foretinib; first compound 2.53 µM): 0.89 | relative viability (AGI-6780 + Foretinib; first compound 8 µM): 0.992 | relative viability (AGI-6780 + Crizotinib; first compound 0.08 µM): 0.943 | relative viability (AGI-6780 + Crizotinib; first compound 0.253 µM): 0.827 | relative viability (AGI-6780 + Crizotinib; first compound 0.8 µM): 0.828 | relative viability (AGI-6780 + Crizotinib; first compound 2.53 µM): 0.858 | relative viability (AGI-6780 + Crizotinib; first compound 8 µM): 0.903 | relative viability (AGI-6780 + Dasatinib; first compound 0.08 µM): 0.51 | relative viability (AGI-6780 + Dasatinib; first compound 0.253 µM): 0.51 | relative viability (AGI-6780 + Dasatinib; first compound 0.8 µM): 0.459 | relative viability (AGI-6780 + Dasatinib; first compound 2.53 µM): 0.459 | relative viability (AGI-6780 + Dasatinib; first compound 8 µM): 0.459 | relative viability (AGI-6780 + Pictilisib; first compound 0.08 µM): 0.621 | relative viability (AGI-6780 + Pictilisib; first compound 0.253 µM): 0.629 | relative viability (AGI-6780 + Pictilisib; first compound 0.8 µM): 0.628 | relative viability (AGI-6780 + Pictilisib; first compound 2.53 µM): 0.614 | relative viability (AGI-6780 + Pictilisib; first compound 8 µM): 0.519 | relative viability (AGI-6780 + Alpelisib; first compound 0.08 µM): 0.923 | relative viability (AGI-6780 + Alpelisib; first compound 0.253 µM): 0.934 | relative viability (AGI-6780 + Alpelisib; first compound 0.8 µM): 0.846 | relative viability (AGI-6780 + Alpelisib; first compound 2.53 µM): 0.992 | relative viability (AGI-6780 + Alpelisib; first compound 8 µM): 0.874 | relative viability (AGI-6780 + Luminespib; first compound 0.08 µM): 0.585 | relative viability (AGI-6780 + Luminespib; first compound 0.253 µM): 0.537 | relative viability (AGI-6780 + Luminespib; first compound 0.8 µM): 0.577 | relative viability (AGI-6780 + Luminespib; first compound 2.53 µM): 0.492 | relative viability (AGI-6780 + Luminespib; first compound 8 µM): 0.542 | relative viability (AGI-6780 + Linsitinib; first compound 0.08 µM): 1.27 | relative viability (AGI-6780 + Linsitinib; first compound 0.253 µM): 1.22 | relative viability (AGI-6780 + Linsitinib; first compound 0.8 µM): 1.24 | relative viability (AGI-6780 + Linsitinib; first compound 2.53 µM): 1.11 | relative viability (AGI-6780 + Linsitinib; first compound 8 µM): 1.08 | relative viability (AGI-6780 + Bortezomib; first compound 0.08 µM): 1 | relative viability (AGI-6780 + Bortezomib; first compound 0.253 µM): 0.918 | relative viability (AGI-6780 + Bortezomib; first compound 0.8 µM): 0.843 | relative viability (AGI-6780 + Bortezomib; first compound 2.53 µM): 0.75 | relative viability (AGI-6780 + Bortezomib; first compound 8 µM): 0.824 | relative viability (AGI-6780 + Pemetrexed; first compound 0.08 µM): 0.712 | relative viability (AGI-6780 + Pemetrexed; first compound 0.253 µM): 0.822 | relative viability (AGI-6780 + Pemetrexed; first compound 0.8 µM): 0.748 | relative viability (AGI-6780 + Pemetrexed; first compound 2.53 µM): 0.655 | relative viability (AGI-6780 + Pemetrexed; first compound 8 µM): 0.518 | relative viability (AGI-6780 + OSI-027; first compound 0.08 µM): 0.784 | relative viability (AGI-6780 + OSI-027; first compound 0.253 µM): 0.752 | relative viability (AGI-6780 + OSI-027; first compound 0.8 µM): 0.805 | relative viability (AGI-6780 + OSI-027; first compound 2.53 µM): 0.666 | relative viability (AGI-6780 + OSI-027; first compound 8 µM): 0.728 | relative viability (AGI-6780 + Lapatinib; first compound 0.08 µM): 1.03 | relative viability (AGI-6780 + Lapatinib; first compound 0.253 µM): 0.924 | relative viability (AGI-6780 + Lapatinib; first compound 0.8 µM): 0.987 | relative viability (AGI-6780 + Lapatinib; first compound 2.53 µM): 0.881 | relative viability (AGI-6780 + Lapatinib; first compound 8 µM): 0.903 | relative viability (AGI-6780 + Phenformin; first compound 0.08 µM): 0.671 | relative viability (AGI-6780 + Phenformin; first compound 0.253 µM): 0.666 | relative viability (AGI-6780 + Phenformin; first compound 0.8 µM): 0.66 | relative viability (AGI-6780 + Phenformin; first compound 2.53 µM): 0.643 | relative viability (AGI-6780 + Phenformin; first compound 8 µM): 0.672
